From EPA's ToxValDB 9.5
Several values for one entry are separate records, joined by “and”; a condition that tells them apart may be missing. Equal values may be shown once.

Tests used:
Mus musculus [1] = details: uterotrophic, injection, subcutaneous, Active
Rattus norvegicus [2] = details: for LEL: uterotrophic, Active
Canidae [3] = details: subchronic; duration: 3 months; oral; gavage; M/F; Beagle; Mydriasis
Rattus norvegicus [4] = details: chronic; duration: 6 months; oral; diet; M; increased liver-to-body weight and liver-to-brain weight ratios
Rattus norvegicus [5] = details: developmental, oral, M
Canidae [6] = details: subchronic; duration: 90 days; oral; Beagle
Mus musculus [7] = details: for LD50: acute
Rattus norvegicus [8] = tested on: Rattus norvegicus
Rattus norvegicus [9] = details: chronic; duration: 26 weeks; oral; diet; Liver: Altered weight

For `CCCCCCCCCc1ccc(O)cc1` [4-Nonylphenol], the LEL (Mus musculus [1]; duration: 0.17 days) was 0.022 mg, the LEL (Rattus norvegicus [2]; duration: 1 days, injection, subcutaneous) was 200 mg/kg-day and 600 mg/kg-day and the LEL (Rattus norvegicus [2]; duration: 3 days, injection, intraperitoneal) was 100 mg/kg-day. The LEL (Rattus norvegicus [2]; duration: 5 days, oral) was 100 mg/kg-day, the LEL (Rattus norvegicus [2]; duration: 7 days, oral) was 120 mg/kg-day and the LEL (Rattus norvegicus [2]; duration: 11 days, oral) was 150 mg/kg-day.
With `Cc1ccc2c(=O)c3cccc(CC(=O)O)c3oc2c1C` [5,6-Dimethylxanthenone-4-acetic acid] the LOEL (Canidae [3]) was 0.3 mg/kg-day and the NOEL (Canidae [3]) was 0.1 mg/kg-day.
`CCCCOC(=O)c1ccccc1C(=O)OCc1ccccc1` [Benzyl butyl phthalate] was tested, and the LOAEL (Rattus norvegicus [4]) was 470 mg/kg-day, the NOAEL (Rattus norvegicus [4]) was 159 mg/kg-day and the NOEL (Rattus norvegicus [5]; Albino, generation: F1, F1: AGD (units not specified)) was 100 mg/kg-day. The LOEL (Rattus norvegicus [5]; drinking water, Wistar Alpk, generation: F1, F1: AGD (mm)) was 0.18 mg/kg-day, the NOEL (Rattus norvegicus [5]; gavage, Crj:CD, generation: F1, F1: AGD (mm) + F1: AGD (mm/cube root BW)) was 400 mg/kg-day and the LOEL (Rattus norvegicus [5]; gavage, Crj:CD, generation: F2, F2: AGD (mm)) was 100 mg/kg-day. The NOAEL (Canidae [6]) was 500 mg/kg-day, the LD50 (Mus musculus [7]; injection, Intraperitoneal, Swiss-Webster) was 3160 mg/kg and the LD50 (Mus musculus [7]; oral) was 4170 mg/kg. The NOAEL (Mus musculus [7]; short-term, duration: 14 days, oral, diet, B6C3F1) was greater than 5250 mg/kg-day, the LD50 (Oryctolagus sp.; acute, dermal) was greater than 10000 mg/kg and the NOAEL (Oryctolagus sp.; reproduction developmental, duration: 12 days, oral, F, New Zealand) was 10 mg/kg-day. It also gave an LC50 (Rattus norvegicus [8]; acute, inhalation) greater than 6.7 µg/mL, an LD50 (Rattus norvegicus [8]; acute, injection, Intraperitoneal) of 2660 mg/kg and an NOAEL (Rattus norvegicus [8]; chronic, duration: 182 days, oral, diet, Fischer 344) of 470 mg/kg-day. It also gave an LOAEL (Rattus norvegicus [8]; chronic, duration: 365 days, oral, diet, F, Fischer 344) of 360 mg/kg-day, an NOAEL (Rattus norvegicus [8]; reproduction developmental, duration: 26 weeks, oral, diet, Fischer 344, generation: F0) of 498 mg/kg-day and an NOAEL (Rattus norvegicus [8]; reproduction developmental, duration: 26 weeks, oral, diet, Fischer 344, generation: F1) of 168 mg/kg-day. It also gave an NOAEL (Rattus norvegicus [8]; reproduction developmental, duration: 26 weeks, oral, diet, M, Fischer 344) of 168 mg/kg-day, an NOAEL (Rattus norvegicus [8]; reproduction developmental, duration: 8 days, oral, gavage, F, Wistar) of 500 mg/kg-day and an NOAEL (Rattus norvegicus [8]; reproduction developmental, duration: 8 days, oral, gavage, Wistar, generation: F1) of 500 mg/kg-day. The NOAEL (Rattus norvegicus [8]; reproduction developmental, duration: 10 days, oral, diet, F, Sprague-Dawley) was 420 mg/kg-day, the NOAEL (Rattus norvegicus [8]; reproduction developmental, duration: 10 days, oral, diet, Sprague-Dawley, generation: F1) was 1100 mg/kg-day and the NOAEL (Rattus norvegicus [8]; reproduction developmental, duration: 14 days, oral, diet, Fischer 344, generation: F0) was 750 mg/kg-day. For the same molecule, the NOAEL (Rattus norvegicus [8]; reproduction developmental, duration: 20 days, oral, diet, Wistar, generation: F1) was greater than 1020 mg/kg-day, the NOAEL (Rattus norvegicus [8]; reproduction developmental, duration: 21 days, oral, diet, Fischer 344, generation: F0) was no more than 679 mg/kg-day and the NOAEL (Rattus norvegicus [8]; reproduction developmental, oral, diet, F, Wistar) was less than 631 mg/kg-day. It also gave an NOAEL (Rattus norvegicus [8]; reproduction developmental, oral, diet, Wistar, generation: F0) of 206 mg/kg-day, an NOAEL (Rattus norvegicus [8]; short-term, duration: 14 days, oral, gavage, Sprague-Dawley) of 160 mg/kg-day and an NOAEL (Rattus norvegicus [8]; short-term, duration: 14 days, oral, gavage, Wistar) of 480 mg/kg-day. The LOAEL (Rattus norvegicus [8]; short-term, duration: 21 days, oral, diet, Fischer 344) was 639 mg/kg-day, the LOAEL (Rattus norvegicus [8]; short-term, duration: 28 days, oral, diet, Fischer 344) was 540 mg/kg-day and the NOAEL (Rattus norvegicus [8]; short-term, duration: 28 days, oral, diet, Sprague-Dawley) was 1000 mg/kg-day. It also gave an NOAEL (Rattus norvegicus [8]; subchronic, duration: 42 days, oral, diet, Sprague-Dawley) of 500 mg/kg-day, an NOAEL (Rattus norvegicus [8]; subchronic, duration: 90 days, inhalation, Sprague-Dawley) of 0.218 mg/L and an NOAEL (Rattus norvegicus [8]; subchronic, duration: 90 days, oral, diet, Sprague-Dawley) of 375 mg/kg-day. For the same molecule, the NOAEL (Rattus norvegicus [8]; subchronic, duration: 90 days, oral, diet, Wistar) was 151 mg/kg-day and the NOAEL (Rattus norvegicus [9]) was 159 mg/kg-day.
In the case of `CC(=O)O[C@]1(C(C)=O)CC[C@H]2[C@@H]3C=C(Cl)C4=CC(=O)[C@@H]5C[C@@H]5[C@]4(C)[C@H]3CC[C@@]21C` [Cyproterone acetate], the LEL (Mus musculus [1]; duration: 36 days) is reported as 2 mg and 1 mg/day, the LOEL (Rattus norvegicus [2]; Hershberger, duration: 10 days, oral, gavage, Wistar, active + Negative + Antiandrogenic + anti-androgenic) is reported as 0.4 mg/kg-day and the LEL (Rattus norvegicus [2]; duration: 36 days, injection, subcutaneous) is reported as 3 mg and 1 mg/day.
